Assay results reported in PubChem BioAssay AID248 (DTP/NCI, 2004).
Values joined by “and” are separate entries in the source; they are usually repeats but may differ in a detail not shown here. Equal values may be shown once. Toxic doses and inconclusive results are not listed. Rule as the data show it: active = T/C of 150% or more; inactive = T/C below 125%.

Test system: L1210 leukemia ip in BDF1 mice, survival T/C
Test: NCI In Vivo Anticancer Drug Screen. Data for tumor model L1210 Leukemia (intraperitoneal) in B6D2F1 (BDF1) mice
Settings: endpoint: mean survival time, higher = longer survival
How it was run: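 Mice bearing the transplanted tumor received compound or vehicle. Survival of the treated group was divided by that of the vehicle-treated control group to give the ratio.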

[1] = dose: 100.0 mg/kg/injection, schedule: Q04DX003 (ip), vehicle: Klucel (hydroxypropylcellulose) (HPC)
[2] = dose: 200.0 mg/kg/injection, schedule: Q04DX003 (ip), vehicle: Klucel (hydroxypropylcellulose) (HPC)
[3] = dose: 400.0 mg/kg/injection, schedule: Q04DX003 (ip), vehicle: Klucel (hydroxypropylcellulose) (HPC)
[4] = dose: 100.0 mg/kg/injection, schedule: Q01DX001 (ip), vehicle: other
[5] = dose: 200.0 mg/kg/injection, schedule: Q01DX001 (ip), vehicle: other
[6] = dose: 25.0 mg/kg/injection, schedule: Q01DX009 (ip), vehicle: Klucel (hydroxypropylcellulose) (HPC)
[7] = dose: 50.0 mg/kg/injection, schedule: Q01DX009 (ip), vehicle: Klucel (hydroxypropylcellulose) (HPC)
[8] = dose: 100.0 mg/kg/injection, schedule: Q01DX009 (ip), vehicle: Klucel (hydroxypropylcellulose) (HPC)
[9] = dose: 200.0 mg/kg/injection, schedule: Q01DX009 (ip), vehicle: Klucel (hydroxypropylcellulose) (HPC)
[10] = dose: 400.0 mg/kg/injection, schedule: Q01DX009 (ip), vehicle: Klucel (hydroxypropylcellulose) (HPC)
[11] = dose: 100.0 mg/kg/injection, schedule: Q01DX001 (ip), vehicle: saline
[12] = dose: 200.0 mg/kg/injection, schedule: Q01DX001 (ip), vehicle: saline
[13] = dose: 400.0 mg/kg/injection, schedule: Q01DX001 (ip), vehicle: saline
[14] = dose: 100.0 mg/kg/injection, schedule: Q01DX009 (ip), vehicle: saline with Tween-80
[15] = dose: 200.0 mg/kg/injection, schedule: Q01DX009 (ip), vehicle: saline with Tween-80
[16] = dose: 100.0 mg/kg/injection, schedule: Q04DX002 (ip), vehicle: Klucel (hydroxypropylcellulose) (HPC)
[17] = dose: 200.0 mg/kg/injection, schedule: Q04DX002 (ip), vehicle: Klucel (hydroxypropylcellulose) (HPC)
[18] = dose: 400.0 mg/kg/injection, schedule: Q04DX002 (ip), vehicle: Klucel (hydroxypropylcellulose) (HPC)

Measured: T/C

CSCCC(NCc1cc(=O)[nH]c(=O)[nH]1)C(=O)O (stereo not drawn)
inactive: dose: 100.0 mg/kg/injection, schedule: Q04DX003 (ip), vehicle: saline 97 % of control | dose: 200.0 mg/kg/injection, schedule: Q04DX003 (ip), vehicle: saline 101 % of control | dose: 400.0 mg/kg/injection, schedule: Q04DX003 (ip), vehicle: saline 95 % of control

Cc1nc(N)[nH]c(=O)c1N
inactive: dose: 75.0 mg/kg/injection, schedule: Q01DX001 (ip), vehicle: saline with Tween-80 106 % of control | [1] 100 % of control | dose: 150.0 mg/kg/injection, schedule: Q01DX001 (ip), vehicle: saline with Tween-80 101 % of control | [2] 96 % of control | dose: 300.0 mg/kg/injection, schedule: Q01DX001 (ip), vehicle: saline with Tween-80 103 % of control | [3] 92 % of control

Cc1cc(C)c2[nH]c(=O)c(C)c(C)c2c1
inactive: [4] 104 % of control | [5] 95 % of control | dose: 400.0 mg/kg/injection, schedule: Q01DX001 (ip), vehicle: other 95 % of control

CS(=O)(=O)c1nc(Cl)c(Cl)[nH]1
inactive: dose: 100.0 mg/kg/injection, schedule: Q01DX001 (ip), vehicle: saline with Tween-80 100 % of control | dose: 200.0 mg/kg/injection, schedule: Q01DX001 (ip), vehicle: saline with Tween-80 102 % of control | dose: 400.0 mg/kg/injection, schedule: Q01DX001 (ip), vehicle: saline with Tween-80 104 % of control

CCC(C)[n+]1cc([O-])on1 (stereo not drawn)
inactive: dose: 12.5 mg/kg/injection, schedule: Q01DX009 (ip), vehicle: Klucel (hydroxypropylcellulose) (HPC) 98 % of control | [6] 98 % of control | [7] 95 % of control

N=C(N)c1ccc(OCCCCCCOc2ccc(C(=N)N)cc2)cc1
inactive: dose: 5.0 mg/kg/injection, schedule: Q01DX001 (ip), vehicle: saline 100 % of control | dose: 10.0 mg/kg/injection, schedule: Q01DX001 (ip), vehicle: saline 100 % of control | dose: 20.0 mg/kg/injection, schedule: Q01DX001 (ip), vehicle: saline 103 % of control | dose: 40.0 mg/kg/injection, schedule: Q01DX001 (ip), vehicle: saline 101 % of control | dose: 80.0 mg/kg/injection, schedule: Q01DX001 (ip), vehicle: saline 92 % of control

O=C(/C=C/c1ccc([N+](=O)[O-])cc1)c1ccc(Cl)cc1
inactive: dose: 100.0 mg/kg/injection, schedule: Q04DX003 (ip), vehicle: saline with Tween-80 104 % of control | dose: 200.0 mg/kg/injection, schedule: Q04DX003 (ip), vehicle: saline with Tween-80 94 % of control | dose: 400.0 mg/kg/injection, schedule: Q04DX003 (ip), vehicle: saline with Tween-80 91 % of control

CNC(=S)N/N=C(/C)C(=O)O
inactive: [8] 96 % of control | [1] 96 % of control | [9] 96 % of control | [2] 91 % of control | [10] 102 % of control | [3] 88 % of control

C[C@]12CCC(=O)C[C@H]1CC[C@@H]1[C@@H]2CC[C@@]2(C)[C@H]1CC[C@]2(C)O
inactive: dose: 50.0 mg/kg/injection, schedule: Q01DX Z (sc), vehicle: steriod suspending solution 98 % of control | dose: 100.0 mg/kg/injection, schedule: Q01DX Z (sc), vehicle: steriod suspending solution 98 % of control | dose: 200.0 mg/kg/injection, schedule: Q01DX Z (sc), vehicle: steriod suspending solution 101 % of control | dose: 400.0 mg/kg/injection, schedule: Q01DX Z (sc), vehicle: steriod suspending solution 98 % of control

CCCCCCCCCCCCCCCCCCNC(=O)Nc1cc(C(C)C)ccc1C
inactive: dose: 100.0 mg/kg/injection, schedule: Q01DX009 (ip), vehicle: other 86 % of control | dose: 200.0 mg/kg/injection, schedule: Q01DX009 (ip), vehicle: other 88 % of control | dose: 400.0 mg/kg/injection, schedule: Q01DX009 (ip), vehicle: other 99 % of control and 100 % of control

O=CC1=C(Cl)c2ccccc2SC1
inactive: [4] 93 % of control | [5] 98 % of control

CCOC(=O)c1cnc2c(ccc3ncccc32)c1NCCCN(CC)CC
inactive: [7] 112 % of control

C[CH2][Ge]1([CH2]C)[CH2]C(C)=C(C)[CH2]1
inactive: dose: 100.0 mg/kg/injection, schedule: Q04DX002 (ip), vehicle: saline with Tween-80 95 % of control | dose: 200.0 mg/kg/injection, schedule: Q04DX002 (ip), vehicle: saline with Tween-80 95 % of control

CN(C)c1ccc2[nH]c(=O)c3ccccc3c2c1
inactive: dose: 75.0 mg/kg/injection, schedule: Q01DX001 (ip), vehicle: carboxymethylcellulose (CMC) 101 % of control

CC(C)(C)c1cc(O)c(C(C)(C)C)cc1O
inactive: dose: 50.0 mg/kg/injection, schedule: Q01DX001 (ip), vehicle: saline 90 % of control | [11] 96 % of control | dose: 100.0 mg/kg/injection, schedule: Q04DX002 (ip), vehicle: gum acacia 106 % of control | [12] 94 % of control | dose: 200.0 mg/kg/injection, schedule: Q04DX002 (ip), vehicle: gum acacia 106 % of control | [13] 98 % of control | dose: 400.0 mg/kg/injection, schedule: Q04DX002 (ip), vehicle: gum acacia 108 % of control

C[N+]1(CCCl)CCOCC1
inactive: dose: 20.0 mg/kg/injection, schedule: Q01DX009 (ip), vehicle: Klucel (hydroxypropylcellulose) (HPC) 97 % of control | dose: 40.0 mg/kg/injection, schedule: Q01DX009 (ip), vehicle: Klucel (hydroxypropylcellulose) (HPC) 102 % of control

O=C1Nc2ccc(C(=O)O)c(O)c2C1=O
inactive: dose: 50.0 mg/kg/injection, schedule: Q01DX001 (ip), vehicle: Klucel (hydroxypropylcellulose) (HPC) 112 % of control | dose: 100.0 mg/kg/injection, schedule: Q01DX001 (ip), vehicle: Klucel (hydroxypropylcellulose) (HPC) 112 % of control | dose: 200.0 mg/kg/injection, schedule: Q01DX001 (ip), vehicle: Klucel (hydroxypropylcellulose) (HPC) 102 % of control

CC(=O)Oc1c(Cl)cc(Cl)cc1Cl
inactive: [14] 107 % of control | [15] 100 % of control | dose: 400.0 mg/kg/injection, schedule: Q01DX009 (ip), vehicle: saline with Tween-80 100 % of control

O=[N+]([O-])c1ccc(Oc2ccc(Br)cc2)cc1
inactive: [1] 104 % of control | [2] 104 % of control | [3] 93 % of control

CCC/C(=N/NC(=O)C1CCCO1)c1ccccc1 (stereo not drawn)
inactive: [6] 104 % of control | [7] 102 % of control | [8] 104 % of control and 88 % of control

Cc1ccc(NC(Nc2ccc(C)c(Cl)c2)C(Cl)(Cl)Cl)cc1Cl
inactive: [8] 96 % of control | [1] 92 % of control | [9] 92 % of control | [2] 118 % of control | [10] 89 % of control | [3] 103 % of control

O=C(OCc1ccccc1)C1CCCN1Cc1ccc2c(c1)OCO2 (stereo not drawn)
inactive: [11] 93 % of control | [13] 96 % of control

O=C1c2cccc3c([N+](=O)[O-])ccc(c23)C(=O)N1Cc1ccco1
inactive: [16] 108 % of control | [17] 97 % of control | [18] 102 % of control

COP(=O)(OC)Oc1c(Cl)c(OP(=O)(OC)OC)c(Cl)c(OP(=O)(OC)OC)c1Cl
inactive: [16] 115 % of control | [17] 100 % of control | [18] 86 % of control

CC(C)=NNC(=O)c1ccc(N)cc1
inactive: [14] 91 % of control | [15] 101 % of control

COc1ccc(/C=N/NC(=S)Nc2cccc3cccnc23)cc1OC
inactive: [11] 100 % of control | [12] 94 % of control | [13] 86 % of control

Nc1ccc(S(=O)(=O)Nc2ccc([N+](=O)[O-])cn2)cc1
inactive: [11] 101 % of control | [12] 104 % of control | [13] 98 % of control

CC1(C)CCC(C)(C)C(O)C1O (stereo not drawn)
inactive: [16] 92 % of control | [17] 105 % of control | [18] 118 % of control

Cc1cn(C2CC(O)C(COC(c3ccccc3)(c3ccccc3)c3ccccc3)O2)c(=O)[nH]c1=O (stereo not drawn)
inactive: dose: 100.0 mg/kg/injection, schedule: Q01DX005 (ip), vehicle: saline 104 % of control | dose: 200.0 mg/kg/injection, schedule: Q01DX005 (ip), vehicle: saline 96 % of control
